Measurements from patent publication US20070093539A1, “N-hydroxy-4-(3-pheyl-5-methyl-isoxazole-4-yl)-benzenesulfonate solvates” (priority 2003, published 2007).

What was measured:
isolated rabbit heart = assay: Cardiac effects on the isolated rabbit heart (Langendorff, coronary flow); set-up: species or system New Zealand white rabbits; conditions: 1, 3 and 10 μM, 4-4 hearts
Experimental: New Zealand white rabbits weighing 1.5-2 kg were used. The animals were exsanguinated and after thoracotomy the hearts were excised and mounted on a Langendorff-type perfusion apparatus. The hearts were perfused via the aorta with oxigenated, thermostated (37° C.) Krebs solution. A constant perfusion pressure of 80 cmH2O was applied. The test compounds were dissolved in the perfusion solution to obtain the requested concentrations.
The basic value of coronary flow was determined. Afterwards the small amount of compounds were added to perfusion liquid and the perfusion was measured for 30 minutes at every 10 minutes. Afterwards 30 minutes perfusion was performed without compound and the measure was repeated with the medium and high amount of compounds.
The effects of same concentration of valdecoxib and compound of example 1 were investigated in 4-4 hearts (1, 3 and 10 μM). Valdecoxib had no effect in either concentration. It can clearly be shown that the coronary flow was increased dose dependently. This effect is advantageous in practice of clinical therapy, because the painful arthritic and degenerative joint and bone deformations are emerged rather in old age, when diseases of the vascular system are also frequently encountered, which can conduce to disorder of vascular bed of the heart.

[1] = test system: carrageenan induced inflammatory hyperalgesia; assay: Carrageenan induced inflammatory hyperalgesia (Randall-Selitto), acute model; type: in vivo, male SPRD rats; conditions: Acut model, 10 mg/kg p.o.
Experimental: (§1) Edema was induced by injection of Carrageenan (CA) into plantar surface of right hind paw. Male SPRD rats (weighing 140-190 g) were used n=6-8/group). Then the mechanical pain threshold of the inflamed hind paw was determined with an analgesimeter ((Ugo Basile, type: 37215).
(§2) This assay monitors the decrease of the pain threshold, and the time depending changing of the pain by mechanical pain stimulus. Analgesics can increase the pain threshold of the inflamed hinds and this effect is in terms of percentage of reversal.
(§3) Untreated right hind paw was compressed with a progressively increasing pressure. The pressure was recorded (in grams) when the animal first vocalized or made a vigorous attempt to remove the paw. It was determined to baseline threshold of the untreated paw. (average: 80-110 g). After it the animals were treated with carrageenan. After the treatment the edema and the threshold were checked in a given times. […] (Average of inflammation induced pain threshold was 20-25 g, this means 65-80% decrease related to the baseline.)
1 hour after the CA injection (100 μl of 2% solution) the animals were treated with test compounds and valdecoxib (10-10 mg/kg p.o.). […]
(§4) The chronic phase of the inflammantion and the decreasing of the threshold were induced by higher dose of CA. Inflammation induced threshold decreasing was measured 24 hours after the CA injection (150 μl of 2% solution). ) After it the animals were treated with test compounds and valdecoxib (30-30 mg/kg p.o.). Change in the threshold was checked at 1 h, 2 h, and 3 h following drug administration. In both model used control groups were treated orally only with solvents at the time of treatments. In both protocol the effects of the test compounds were calculated in percentage reversal of mechanical hiperalgesia: [formula] • T3h: In acute model, the threshold in the control group at 3 h after the CA injection (in gram) • T24h: In chronic model, the threshold in the control group at 24 h after the CA injection (in gram) • T0h: The threshold before the CA injection (in gram) • TXh In acute model, at 3h after the CA injection • TXh=In chronic model, at 25 h, 26 h, 27 h after the CA injection

[2] = test system: carrageenan and kaolin induced monoarthritis; assay: Carrageenan and kaolin induced monoarthritis model (incapacitance test); type: in vivo, rats; conditions: 10 mg/kg p.o.
Experimental: The Incapacitance tester is an apparatus for measure the changes of the functional parameters induced of the pain, which can register the bearing on the hind limb, the amount of the moving and the changing of the centre of gravity. Knee-joint of the right-back limb was treated with solution of 100 μl 2% carrageenan and kaolin. During 3-4 hours after the treatment arthritis was emerged in the capsular ligament of the treated limb. This inflammation still exists at 24 hours after the treatment. Because of the pain the animals coddles the treated limbs, thy weign on it less. Change of weight load is measurable with Incapacitance tester device in grams. The incapacitance was calculated as follows: [formula] Analgesic-antiinflammantory compounds could increase the stimulus threshold of the knee-joint, and consequently to improve the functional parameters of the limb. Measure of this can be counted by the decrease of the loading of left leg i.e. in terms of percentage of reversal. [formula] The Incapacitance induced by administration of irritants in left paw was measured at 4 hour after the injection. Afterwards the animals (n=24-32/group) were. orally treated with dose of 10 mg/kg valdecoxib and test compounds. Measurements were done at 1 and 2 hours after the treatments.

[3] = test system: inflammatory mechanical allodynia induced by carrageenan; assay: Carrageenan-induced inflammatory mechanical allodynia (von Frey); type: in vivo, male Sprague-Dawley rats; conditions: 30 mg/kg p.o.
Experimental: The-threshold of pain of the animals was measured by von Frey apparatus (IITC, type: 1601 C). […] The values were registered in the times of the pick up or raises. During each measurment the threshold was determined at least thrice and the avarage was calculated from the peak values.
Male Sprague-Dawley rats (weighing 250-300 g) were used (n=5-6/group). 100 μl of saline solution of carrageenant (CA) was injected to the middle of the paw. The stimulus threshold was measured after it, and the treatment was completed with gastro-probe per os. The effects of the materials were measured in 30, 60, 90, 120 minutes after the treatments. The effects were compared for control group treatment with vehicle (solution of 2% Tween-80).
The effect was calculated as follows: [formula] where tx=30, 60, 90, 120 min
In the acute pain model the analgesic effects of the valdecoxib and compound of example 1 were considerable with dose of 30 mg/kg p.o. once.

[4] = test system: carrageenan induced inflammatory hyperalgesia; assay: Carrageenan induced inflammatory hyperalgesia (Randall-Selitto), chronic model; type: in vivo, male SPRD rats; conditions: 30 mg/kg p.o.
Experimental: as §1, §2, §3, §4

[5] = test system: carrageenan-induced foot paw edema; assay: Carrageenan-induced rat foot paw edema assay; type: in vivo, male Wistar rats; conditions: for ED30 of edema inhibition: p.o.
Experimental: The edema was induced in male Wistar rats (140-150 g) by subcutaneous injection of carrageenan (50 μl of 1% suspension) into the right hind paw. The formed inflammation was measured with plethysmometer (Ugo Basile, type: 7150). The treated paw was placed into the plethysmometer (filled with 0.3% additives in 0.5% saline), the level of the inflammation was detected by the volume of the displaced solution. This volume was compared with the initial preinjection paw volume. Level of the inflammation (ml)=volume after CA treatment (ml)−volume before CA treatment (ml) The inflammation induced in treated group was compared to control group (which was given only vehicle). The sample materials and the solvent were dosed per os via gastro-sonde 1 hour before the CA treatment. The volume of the treated limb was measured at 3h and 5h after CA treatments. The change of the inflammation level was calculated as follows: [formula]

Compound: Cc1onc(-c2ccccc2)c1-c1ccc(S(N)(=O)=O)cc1 [valdecoxib, reference compound]
- effect on coronary flow (in words) (isolated rabbit heart): no effect
- Analgesic effect in % after p.o. treatment ([1]; 2 hours): 50.5%
- Analgesic effect in % after p.o. treatment ([1]; 3 hours): 59.9%
- Analgesic effect in % after p.o. treatment ([1]; 4 hours): 33.2%
- Analgesic effect (% reversal) after p.o. treatment ([2]; 1 hour): 52.1 % reversal
- Analgesic effect (% reversal) after p.o. treatment ([2]; 2 hours): 62.4 % reversal
- Analgesic effect in % after p.o. treatment ([3]; 30 min.): 69.2%
- Analgesic effect in % after p.o. treatment ([3]; 1 hour): 60.0%
- Analgesic effect in % after p.o. treatment ([3]; 1.5 hour): 57.7%
- Analgesic effect in % after p.o. treatment ([3]; 2 hours): 47.8%
- Analgesic effect in % after p.o. treatment ([4]; 1 hour): 24.2%
- Analgesic effect in % after p.o. treatment ([4]; 2 hours): 36.9%
- Analgesic effect in % after p.o. treatment ([4]; 3 hours): 19.9%
- edema inhibition effect % ([5]; 0.1 mg/kg p.o., 4 hours after treatment): 29.4%
- edema inhibition effect % ([5]; 0.1 mg/kg p.o., 6 hours after treatment): 25.8%
- edema inhibition effect % ([5]; 0.3 mg/kg p.o., 4 hours after treatment): 34.1%
- edema inhibition effect % ([5]; 0.3 mg/kg p.o., 6 hours after treatment): 27.3%
- edema inhibition effect % ([5]; 1.0 mg/kg p.o., 4 hours after treatment): 40.1%
- edema inhibition effect % ([5]; 1.0 mg/kg p.o., 6 hours after treatment): 37.8%
- edema inhibition effect % ([5]; 3.0 mg/kg p.o., 4 hours after treatment): 47.7%
- edema inhibition effect % ([5]; 3.0 mg/kg p.o., 6 hours after treatment): 45.8%
- ED30 of edema inhibition ([5]; 4 hours after treatment): 0.2 mg/kg
- ED30 of edema inhibition ([5]; 6 hours after treatment): 0.3 mg/kg
